Legend:
Details in all cases: read-out: Stability
[1] = Metabolic stability in rat liver microsomes assessed as compound remaining at 1 uM after 30 mins by HPLC-MS/MS analysis; format: ADME
[2] = Metabolic stability in human liver microsomes assessed as compound remaining at 1 uM after 30 mins by HPLC-MS/MS analysis; format: ADME
[3] = Metabolic stability in BALB/c mouse liver microsomes assessed as compound remaining at 1 uM after 30 mins by HPLC-MS/MS analysis; format: ADME, Microsome

Row | SMILES | remaining at 0.5 h, 1 µM [1] [%] | remaining at 0.5 h, 1 µM [2] [%] | remaining at 0.5 h, 1 µM [3] [%]
1 | O=C(Nc1nc(-c2ccccn2)cs1)c1ccccc1 | 54.5 | 27.5 | 7.6
2 | O=C(Nc1nc(-c2ccccn2)cs1)c1cccc(Br)c1 | > 99 | > 99 | 82.4
3 | O=C(Nc1nc(-c2ccccn2)cs1)c1ccncc1 | 47.8 | 53.8 | 3.71
4 | N#Cc1ccc(C(=O)Nc2nc(-c3ccccn3)cs2)cc1 | 64.6 | 24.1 | 1.61
5 | O=C(Nc1nc(-c2ccccn2)cs1)c1ccc(Cl)cc1 | 42.1 | 8.4 | 1.33
6 | O=C(Nc1nc(-c2ccccn2)cs1)c1ccc(F)cc1 | 72.1 | 14.2 | 3.61

Reference: ChEMBL document CHEMBL3102791, “Synthesis and biological evaluation of 2-aminothiazole derivatives as antimycobacterial and antiplasmodial agents” (Bioorg Med Chem Lett, 2014)
